Active and inactive are the calls of the source. No cut-off for these calls is given here.
Tests used:
[1] = Upregulation of efflux pump regulator promoter activity in Klebsiella pneumoniae assessed as increase in beta-galactosidase activity at 50 ug/ml by LacZ based OD600 analysis relative to control; assay type: ADME; conditions: dose 50 µg/ml
Klebsiella pneumoniae [2] = assay: Hormesis activity against overnight compound-treated Klebsiella pneumoniae assessed as increase in antibiotic MIC by measuring hygromycinMIC at 3 ug/ml incubated for 12 hrs by OD600 based analysis (reference value: 12.5 ug/ml); assay type: ADME, organism-based; conditions: in vivo, dose 3 µg/ml
Klebsiella pneumoniae [3] = assay: Hormesis activity against overnight compound-treated Klebsiella pneumoniae deficient in KmrA gene expression assessed as increase in antibiotic MIC by measuring tetracycline MIC at 3 ug/ml incubated for 12 hrs by OD600 based analysis (reference value: 6 ug/ml); assay type: ADME, organism-based; conditions: in vivo, dose 3 µg/ml
Acinetobacter baumannii [4] = assay: Hormesis activity against Acinetobacter baumannii assessed as increase in antibiotic MIC by measuring ciprofloxacin MIC at 3 ug/ml incubated for 12 hrs by OD600 based analysis (reference value: 0.3125 ug/ml); assay type: ADME, organism-based; conditions: in vivo, dose 3 µg/ml
Klebsiella pneumoniae [5] = assay: Hormesis activity against Klebsiella pneumoniae assessed as increase in antibiotic MIC by measuring chloramphenicol MIC at 3 ug/ml incubated for 12 hrs by OD600 based analysis (reference value: 6.25 ug/ml); assay type: ADME, organism-based; conditions: in vivo, dose 3 µg/ml
Acinetobacter baumannii [6] = assay: Hormesis activity against Acinetobacter baumannii assessed as increase in antibiotic MIC by measuring hygromycinMIC at 3 ug/ml incubated for 12 hrs by OD600 based analysis (reference value: 125 ug/ml); assay type: ADME, organism-based; conditions: in vivo, dose 3 µg/ml
Acinetobacter baumannii [7] = assay: Hormesis activity against Acinetobacter baumannii assessed as increase in antibiotic MIC by measuring streptomycin MIC at 3 ug/ml incubated for 12 hrs by OD600 based analysis (reference value: 400 ug/ml); assay type: ADME, organism-based; conditions: in vivo, dose 3 µg/ml
Klebsiella pneumoniae [8] = assay: Hormesis activity against overnight compound-treated Klebsiella pneumoniae deficient in KmrA gene expression assessed as increase in antibiotic MIC by measuring cefotaxime MIC at 3 ug/ml incubated for 12 hrs by OD600 based analysis (reference value: 0.39625 ug/ml); assay type: ADME, organism-based; conditions: in vivo, dose 3 µg/ml
Enterobacter cloacae [9] = assay: Hormesis activity against overnight compound-treated Enterobacter cloacae assessed as increase in antibiotic MIC by measuring meropenem MIC at 3 ug/ml incubated for 12 hrs by OD600 based analysis (reference value: 0.1953 ug/ml); assay type: ADME, organism-based; conditions: in vivo, dose 3 µg/ml
Klebsiella pneumoniae [10] = assay: Hormesis activity against Klebsiella pneumoniae deficient in KmrA gene expression assessed as increase in antibiotic MIC by measuring hygromycinMIC at 3 ug/ml incubated for 12 hrs by OD600 based analysis (reference value: 12.5 ug/ml); assay type: ADME, organism-based; conditions: in vivo, dose 3 µg/ml
Enterobacter cloacae [11] = assay: Hormesis activity against Enterobacter cloacae assessed as promotion of bacterial growth up to 25 ug/ml measured for 24 hrs in presence of 8 ug/ml tetracycline by OD600 based analysis; assay type: organism-based; conditions: in vivo, dose <=25 µg/ml
Klebsiella pneumoniae [12] = assay: Hormesis activity against Klebsiella pneumoniae assessed as increase in antibiotic MIC by measuring ciprofloxacin MIC at 3 ug/ml incubated for 12 hrs by OD600 based analysis (reference value: 0.0390625 ug/ml); assay type: ADME, organism-based; conditions: in vivo, dose 3 µg/ml
Klebsiella pneumoniae [13] = assay: Hormesis activity against Klebsiella pneumonia assessed as inhibition of bacterial growth at 12 ug/ml measured after 24 hrs by OD600 based analysis; assay type: functional, organism-based; conditions: dose 12.0 µg/ml
[14] = Upregulation of efflux pump regulator promoter activity in Klebsiella pneumoniae assessed as increase in beta-galactosidase activity at 3 to 50 ug/ml by LacZ based OD600 analysis; assay type: ADME; conditions: dose 3-50 µg/ml
Klebsiella pneumoniae [15] = assay: Hormesis activity against overnight compound-treated Klebsiella pneumoniae deficient in KmrA gene expression assessed as increase in antibiotic MIC by measuring rifampicin MIC at 3 ug/ml incubated for 12 hrs by OD600 based analysis (reference value: 25 ug/ml); assay type: ADME, organism-based; conditions: in vivo, dose 3 µg/ml
Klebsiella pneumoniae [16] = assay: Hormesis activity against Klebsiella pneumonia deficient in KmrA gene expression assessed as promotion of bacterial growth at 3 to 6 ug/ml measured for 24 hrs by OD600 based analysis; assay type: organism-based; conditions: in vivo, dose 3-6 µg/ml
[17] = Upregulation of KmrA promoter activity in Klebsiella pneumoniae assessed as increase in beta-galactosidase activity at 3 ug/ml by LacZ based OD600 analysis relative to control; assay type: ADME; conditions: dose 3 µg/ml
Enterobacter cloacae [18] = assay: Hormesis activity against overnight compound-treated Enterobacter cloacae assessed as increase in antibiotic MIC by measuring hygromycinMIC at 3 ug/ml incubated for 12 hrs by OD600 based analysis (reference value: 25 ug/ml); assay type: ADME, organism-based; conditions: in vivo, dose 3 µg/ml
Enterobacter cloacae [19] = assay: Hormesis activity against Enterobacter cloacae assessed as increase in antibiotic MIC by measuring hygromycinMIC at 3 ug/ml incubated for 12 hrs by OD600 based analysis (reference value: 25 ug/ml); assay type: ADME, organism-based; conditions: in vivo, dose 3 µg/ml
Enterobacter cloacae [20] = assay: Hormesis activity against overnight compound-treated Enterobacter cloacae assessed as increase in antibiotic MIC by measuring ciprofloxacin MIC at 3 ug/ml incubated for 12 hrs by OD600 based analysis (reference value: 0.0390625 ug/ml); assay type: ADME, organism-based; conditions: in vivo, dose 3 µg/ml
Klebsiella pneumoniae [21] = assay: Hormesis activity against Klebsiella pneumonia assessed as promotion of bacterial growth at 3 to 50 ug/ml measured for 24 hrs in presence of 4 ug/ml tetracycline by OD600 based analysis; assay type: organism-based; conditions: in vivo, dose 3-50 µg/ml
Acinetobacter baumannii [22] = assay: Hormesis activity against Acinetobacter baumannii assessed as increase in antibiotic MIC by measuring rifampicin MIC at 3 ug/ml incubated for 12 hrs by OD600 based analysis (reference value: 1.5625 ug/ml); assay type: ADME, organism-based; conditions: in vivo, dose 3 µg/ml
[23] = Upregulation of efflux pump KmrA gene expression in Klebsiella pneumoniae at 3 ug/ml incubated for 12 hrs by transcriptome analysis; assay type: ADME; conditions: dose 3 µg/ml
Klebsiella pneumoniae [24] = assay: Hormesis activity against Klebsiella pneumoniae deficient in KmrA gene expression assessed as increase in antibiotic MIC by measuring meropenem MIC at 3 ug/ml incubated for 12 hrs by OD600 based analysis (reference value: 0.39625 ug/ml); assay type: ADME, organism-based; conditions: in vivo, dose 3 µg/ml
Klebsiella pneumoniae [25] = assay: Hormesis activity against Klebsiella pneumonia assessed as inhibition of bacterial growth by measuring shortened logarithmic growth phase at 25 to 50 ug/ml measured after 24 hrs by OD600 based analysis; assay type: functional, organism-based; conditions: dose 25-50 µg/ml
Klebsiella pneumoniae [26] = assay: Hormesis activity against overnight compound-treated Klebsiella pneumoniae deficient in KmrA gene expression assessed as increase in antibiotic MIC by measuring hygromycinMIC at 3 ug/ml incubated for 12 hrs by OD600 based analysis (reference value: 12.5 ug/ml); assay type: ADME, organism-based; conditions: in vivo, dose 3 µg/ml

With `COc1ccc2cc3[n+](cc2c1OC)CCc1cc2c(cc1-3)OCO2` [BERBERINE] the “fold change (FC)” value [1] was 2, the MIC (Klebsiella pneumoniae [2]) was 12.5 µg/mL and the MIC (Klebsiella pneumoniae [3]) was 6 µg/mL. It also gave an MIC (Acinetobacter baumannii [4]) of 0.3125 µg/mL, an MIC (Klebsiella pneumoniae [5]) of 6.25 µg/mL and an MIC (Acinetobacter baumannii [6]) of 250 µg/mL. For the same compound, the MIC (Acinetobacter baumannii [7]) was 400 µg/mL, the MIC (Klebsiella pneumoniae [8]) was 0.3962 µg/mL and the MIC (Enterobacter cloacae [9]) was 0.1953 µg/mL. The MIC (Klebsiella pneumoniae [10]) was 12.5 µg/mL, the Activity (Enterobacter cloacae [11]) was “Toxic” and the MIC (Klebsiella pneumoniae [12]) was 0.07812 µg/mL. The Activity (Klebsiella pneumoniae [13]) was “Active”, the Activity [14] was “Toxic” and the MIC (Klebsiella pneumoniae [15]) was 25 µg/mL. For the same compound, the Activity (Klebsiella pneumoniae [16]) was “Non-Toxic”, the “fold change (FC)” value [17] was 2.5 and the MIC (Enterobacter cloacae [18]) was 25 µg/mL. The MIC (Enterobacter cloacae [19]) was 25 µg/mL, the MIC (Enterobacter cloacae [20]) was 0.1562 µg/mL and the Activity (Klebsiella pneumoniae [21]) was “Toxic”. The MIC (Acinetobacter baumannii [22]) was 3.125 µg/mL, the Activity [23] was “Toxic” and the MIC (Klebsiella pneumoniae [24]) was 0.3962 µg/mL. For the same compound, the Activity (Klebsiella pneumoniae [25]) was “Active” and the MIC (Klebsiella pneumoniae [26]) was 12.5 µg/mL.

— ChEMBL document CHEMBL4831545, “Hormesis Effect of Berberine against Klebsiella pneumoniae Is Mediated by Up-Regulation of the Efflux Pump KmrA” (J Nat Prod, 2021)
